Measurements: patent publication US20210145802A1, “THERAPY FOR OPHTHALMOLOGICAL CONDITIONS” (WREN THERAPEUTICS LIMITED, priority 2018, published 2021)

Legend:
Aβ42 [1] = biological target: T1, Aβ42 (Homo sapiens, UniProt P05067); test: Seeded Aβ42 aggregation kinetics (2% or 50% preformed fibril seeds); type: biochemical; details: 2 μM Aβ42
T1 construct: […]; made in house; host or cells: E. coli BL21 Gold (DE3)
Experimental: For the seeded experiments, preformed fibrils were prepared just prior to the experiment. Kinetic experiments were set up as described above for 5 μM Aβ42 samples in 20 mM sodium phosphate buffer, pH 8 with 200 μM EDTA, 0.02% NaN3 and 20 μM ThT. The ThT fluorescence was monitored for 3 hours to verify the formation of fibrils. Samples were then collected from the wells into low-binding tubes. Under the considered conditions (i.e. 5 μM Aβ42), the monomer concentration is negligible at equilibrium. The final concentration of fibrils, in monomer equivalents, was considered equal to the initial concentration of monomer. Fibrils were then added to freshly prepared monomer in order to reach either 2% or 50% final concentration of seeds in the absence or the presence of Netoglitazone.
Inhibitors can interfere with the aggregation process by inhibiting one or more of the individual microscopic steps. We can identify the microscopic events that are inhibited by the chemical compounds by fitting the integrated rate law (Eq. (54) in Cohen et al., J Chem Phys 135, 065106) to the macroscopic aggregation profiles and comparing the fitted set of microscopic rate constants (k+k2 and k+kn in the absence of pre-formed seeds; k+ and k2 in the presence of pre-formed seeds where primary nucleation is bypassed) required to describe the time evolution of the fibril formation in the absence and presence of Netoglitazone. The analysis is analogous to that carried out in Habchi et al., Proc Natl Acad Sci USA; 114(2):E200-E208, 2017 to study the effects of other small molecules on Aβ42 aggregation.

GMC101 (Aβ worms) [2] = test: Survival rate of Aβ worms; type: in vivo, C. elegans; details: administered at D3; D5 of adulthood
Experimental: (§1) Briefly, Netoglitazone stocks (5 mM in 100% DMSO) were used at an appropriate concentration to seed 9-cm NGM plates. Plates were then placed in a laminar flow hood at room temperature (22° C.) for up to 4 hours to dry. C. elegans cultures were then transferred onto media seeded with compound as L4 stage or Day 3 for late treatments and incubated at 24° for the whole experiment. Experiments were carried out at different Netoglitazone concentrations ranging from 0.05 to 500 μM in 1% DMSO. As controls, plates seeded only with 1% DMSO were used.

GMC101 (Aβ worms) [3] = test: ROS production (ROS-Glo H2O2 assay) in worms; type: in vivo, C. elegans; details: 5 μM; administered at L4; D5 of adulthood
Experimental: ROS-Glo™ H2O2 cell kit assay was used (Promega, Fitchburg, Wis., USA) and adapted for C. elegans studies. The ROS-Glo™ H2O2 Assay is a bioluminescent assay that measures the level of H2O2, a reactive oxygen species (ROS), directly in cell culture or tissue or in defined enzyme reactions. A derivatized luciferin substrate is incubated with sample and reacts directly with H2O2 to generate a luciferin precursor. Worms treated with 5 μM Netoglitazone in 1% DMSO or 1% DMSO only were washed using M9 buffer out the NGM plates. The buffer was then changed 3 times to remove the excess bacteria. Worm pellets were then divided in three wells and 80 μl of worm pellet (around 200 worms/well) was incubated for 6 h at RT with 20 μl of a ROS Substrate Solution (Promega, Fitchburg, Wis., USA); mild shaking at 300 rpm was used to avoid worm sedimentation; afterwards, worms were incubated for ca. 20 min with 100 μl of the detection solution; luminescence was then measured with a Clariostar (BMG Labtech, Aylesbury, UK).

GMC101 (Aβ worms) [4] = test: Automated motility assay, Aβ worms; type: in vivo, C. elegans
Experimental: GMC101 dvIs100[unc-54p::A-beta-1-42::unc-54 3′UTR+mt1-2p::GFP]. mt1-2p::GFP produces constitutive expression of GFP in intestinal cells. unc-54p::A-beta-1-42 expresses full-length human Aβ42 peptide in body wall muscle cells that aggregates in vivo. Shifting L4 or young adult animals from 20° to 24° C. causes paralysis (G. McColl et al., Utility of an improved model of amyloid-beta (Aβ1-42) toxicity in Caenorhabditis elegans for drug screening for Alzheimer's disease. Mol Neurodegener. 7, 57 (2012));
as §1
All C. elegans populations were cultured at 20° C. and developmentally synchronized from a 4 h egg-lay. At 64-72 h post-egg-lay (time zero), individuals were transferred to FUDR plates, and body movements were assessed over the times indicated. At different ages, the animals were washed off the plates with M9 buffer and spread over an OP-50 unseeded 9 cm plate, after which their movements were recorded at 20 fps using a recently developed microscopic procedure (M. Perni et al., Massively parallel C. elegans tracking provides multi-dimensional fingerprints for phenotypic discovery. J. Neurosci. Methods. 306, 57-67 (2018)) for 1 min. Up to 600 animals were counted in each experiment in duplicate unless stated otherwise. […]
In order to screen for the effect of therapeutics in the most robust way, a wide field-of-view nematode-tracking platform (WF-NTP) was used, which enables the simultaneous investigation of multiple phenotypic readouts on large worm populations. […]

Aβ42 [5] = biological target: T1, Aβ42; test: Aβ42 aggregation kinetics in human CSF; type: biochemical; details: 66% CSF; 1.25 and 5-fold excess
Experimental: For the experiments of Aβ42 aggregation kinetics in human CSF, monomeric solutions of 3 μM Aβ42 were prepared similar to above with the only exception that the buffer was 20 mM Hepes, pH 8 supplemented with 1 mM CaCl2 at 150 mM NaCl. The obtained monomer was diluted with the […] in order to reach 66% final concentration of CSF, in which the effect of CSF is close to maximum. Aβ42 aggregation kinetics were performed in the absence and the presence of 1.25 and 5-fold excess of Netoglitazone.

T1 sequence (P05067 671-713): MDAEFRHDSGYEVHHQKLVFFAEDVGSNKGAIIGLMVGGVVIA

O=C1NC(=O)C(Cc2ccc3cc(OCc4ccccc4F)ccc3c2)S1 (stereo not drawn) [Netoglitazone]
decrease of rate constant of surface-catalyzed secondary nucleation (k2) (Aβ42 [1]; 2% seeds, 20-fold excess): about 80% | inhibition of secondary pathways (k2k+) with 2% preformed seeds (Aβ42 [1]; 2% seeds, range of concentrations): concentration-dependent inhibition of secondary pathways | effect on aggregation kinetics with 50% preformed seeds (elongation) (Aβ42 [1]; 50% seeds, up to 20-fold excess): did not affect the aggregation kinetics | survival rate after late administration (GMC101 (Aβ worms) [2]): increase | levels of ROS production (GMC101 (Aβ worms) [3]): significantly decreased the levels of oxidative species | mobility of Aβ worms after treatment at L4 (GMC101 (Aβ worms) [4]; 0-10 μM, administered at L4): greatly improves the mobility | mobility after late administration (GMC101 (Aβ worms) [4]; administered at D3, D5 of adulthood): increase | concentration range of best protective effect on mobility (GMC101 (Aβ worms) [4]; administered at L4, observed at D3 of adulthood): 0.5 to 5 µM | delay of Aβ42 aggregation kinetics in 66% human CSF (Aβ42 [5]): significantly delayed the aggregation kinetics
